Where two headings read alike, the source gives them in different places.
Experiments:
HCT-116 (Colon) = assay: NCI-60 cytotoxicity assay; type: cell-based, human; settings: Homo sapiens; HCT-116 colon; 48 h, sulforhodamine B; read-out: Comparative Cytotoxicity GI50, Colon HCT-116
Procedure: (§1) The antiproliferative activities of the indenoisquinoline compounds are determined in the NCI-60 cancer cell lines of the National Cancer Institute Developmental Therapeutics Program (NCI-DTP). […] Cancer cells are incubated with the test compounds at five concentrations ranging from 100 μM to 10 nM for 48 h. After the treated cancer cells are stained with sulforhodamine B dye, the percentage growth is plotted as a function of the common logarithm of the tested compound concentration. […] The approximate average of GI50 values across the entire panel of NCI-60 cancer cell lines for each compound is recorded as the MGM value.
(§2) NCI-60 Cytotoxicity Assay. Compounds were submitted to the National Cancer Institute Developmental Therapeutic Program to determine their growth-inhibitory potentials in NCI-60 cell lines. All compounds satisfied the pre-screening proceeded into the 5-dose cell viability assay, in which cells were treated for 48 h at 5 dosages ranging from 100 μM to 10 nM.

HOP-62 (Lung) = assay: NCI-60 cytotoxicity assay; type: cell-based, human; settings: Homo sapiens; HOP-62 lung; 48 h, sulforhodamine B; read-out: Comparative Cytotoxicity GI50, Lung HOP-62
Procedure: as §1, §2

UACC-62 (Melanoma) = assay: NCI-60 cytotoxicity assay; type: cell-based, human; settings: Homo sapiens; UACC-62 melanoma; 48 h, sulforhodamine B; read-out: Comparative Cytotoxicity GI50, Melanoma UACC-62
Procedure: as §1, §2

SN12C (Renal) = assay: NCI-60 cytotoxicity assay; type: cell-based, human; settings: Homo sapiens; SN12C renal; 48 h, sulforhodamine B; read-out: Comparative Cytotoxicity GI50, Renal SN12C
Procedure: as §1, §2

OVCAR-3 (Ovarian) = assay: NCI-60 cytotoxicity assay; type: cell-based, human; settings: Homo sapiens; OVCAR-3 ovarian; 48 h, sulforhodamine B; read-out: Comparative Cytotoxicity GI50, Ovarian OVCAR-3
Procedure: as §1, §2

DU-145 (Prostate) = assay: NCI-60 cytotoxicity assay; type: cell-based, human; settings: Homo sapiens; DU-145 prostate; 48 h, sulforhodamine B; read-out: Comparative Cytotoxicity GI50, Prostate DU-145
Procedure: as §1, §2

MCF7 (Breast) = assay: NCI-60 cytotoxicity assay; type: cell-based, human; settings: Homo sapiens; MCF7 breast; 48 h, sulforhodamine B; read-out: Comparative Cytotoxicity GI50, Breast MCE7
Procedure: as §1, §2

NCI-60 cancer cell lines = assay: NCI-60 cytotoxicity assay, MGM; type: cell-based; settings: Homo sapiens; entire panel of NCI-60 cancer cell lines; read-out: MGM (approximate average of GI50 values across the NCI-60 panel)
Procedure: as §1, §2

SF-539 (CNS) = assay: NCI-60 cytotoxicity assay; type: cell-based; settings: Homo sapiens; SF-539 CNS; 48 h, sulforhodamine B; read-out: Comparative Cytotoxicity GI50, CNS SF-539
Procedure: as §1, §2

TC-32 = assay: MTS GI50, Myc-dependent panel; type: cell-based; settings: Homo sapiens, TC-32, 72 h
Procedure: (§3) Cytotoxicity Results in Myc-dependent Cancer Cell Lines.
(§4) MTS Cell Viability IC50 Assay. Drug solutions for MTS IC50 assays of suspension cell lines were made from DMSO stocks by serial-dilutions in 1×PBS (10010-031, Gibco). To set up treatments, drug solutions were plated in triplicates to 96-well tissue culture plates, to which cell-containing media was added to a total volume of 100 μL/well. 100%-viability controls were untreated cells. 2000 cells/well were plated for all suspension cell lines except 3000 cells/well for KMS-27 and 10000 cells/well for CHLA-32. Blanks were cell-free media. Drug treatments were maintained for 72 hr at 37° C. with 5% CO2. To quantify cells, CellTiter 96 AQueous MTS Reagent Powder (G1111, Promega) was dissolved and mixed with phenazine methosulfate (PMS, Sigma-Aldrich P9625) according to manufacturer's instructions. MTS/PMS mix ([…]) was added to treatment wells, 100%-viability control wells, and blank wells. Colors were developed at 37° C. with 5% CO2 for 4 h and absorbance at 490 nm was measured by BioTek Synergy 4 system. To obtain %-viability, A490 values were corrected by blank subtraction, normalized to 100%-viability control, and averaged. Average %-viabilities were plotted against drug dosages to obtain dose-response curves. […] For adherent cell lines, the MTS IC50 assays were conducted the same way as for suspension cell lines except for cell plating and drug treatment. For cell plating, 50 μL of 2000 cells were plated in triplicates to a 96-well tissue culture plate. Cells were allowed sufficient time to become adherent. Serial-diluted drug solutions were made the same way as in the MTS IC50 assays. To set up treatments, drug solutions were mixed with media to two-fold of the final concentrations, and 50 μL of such drug-media mix was then added to 50 μL of plated cells.

AMO-1 = assay: MTS GI50, Myc-dependent panel; type: cell-based; settings: Homo sapiens
Procedure: as §3, §4

RD-ES = assay: MTS GI50, Myc-dependent panel; type: cell-based; settings: 72 h
Procedure: as §3, §4

ARD = assay: MTS GI50, Myc-dependent panel; type: cell-based; settings: 72 h
Procedure: as §3, §4

HL-60 = assay: MTS GI50, Myc-dependent panel; type: cell-based; settings: Homo sapiens, HL-60, 72 h
Procedure: as §3, §4

SK-N-MC = assay: MTS GI50, Myc-dependent panel; type: cell-based; settings: Homo sapiens, 72 h
Procedure: as §3, §4

TC-106 = assay: MTS GI50, Myc-dependent panel; type: cell-based
Procedure: as §3, §4

K-562 = assay: MTS GI50, Myc-dependent panel; type: cell-based; settings: Homo sapiens
Procedure: as §3, §4

THP-1 = assay: MTS GI50, Myc-dependent panel; type: cell-based; settings: Homo sapiens, THP-1, 72 h
Procedure: as §3, §4

CCRF-CRM = assay: MTS GI50, Myc-dependent panel; type: cell-based; settings: 72 h
Procedure: as §3, §4

TC-71 = assay: MTS GI50, Myc-dependent panel; type: cell-based; settings: TC-71, 72 h
Procedure: as §3, §4

CHLA-99 = assay: MTS GI50, Myc-dependent panel; type: cell-based
Procedure: as §3, §4

CHLA-32 = assay: MTS GI50, Myc-dependent panel; type: cell-based
Procedure: as §3, §4

MOLT-4 = assay: MTS GI50, Myc-dependent panel; type: cell-based; settings: Homo sapiens, MOLT-4, 72 h
Procedure: as §3, §4

L-363 = assay: MTS GI50, Myc-dependent panel; type: cell-based; settings: Homo sapiens, L-363, 72 h
Procedure: as §3, §4

Kasumi-1 = assay: MTS GI50, Myc-dependent panel; type: cell-based; settings: Homo sapiens
Procedure: as §3, §4

MDA-MB-231 = assay: MTS GI50, Myc-dependent panel; type: cell-based; settings: Homo sapiens, MDA-MB-231, 72 h
Procedure: as §3, §4

RS4;11 = assay: MTS GI50, Myc-dependent panel; type: cell-based; settings: Homo sapiens
Procedure: as §3, §4

KMS-27 = assay: MTS GI50, Myc-dependent panel; type: cell-based; settings: KMS-27, 72 h
Procedure: as §3, §4

RPMI-8226 = assay: MTS GI50, Myc-dependent panel; type: cell-based; settings: Homo sapiens, RPMI-8226, 72 h
Procedure: as §3, §4

MCF-7 = assay: MTS GI50, Myc-dependent panel; type: cell-based; settings: Homo sapiens
Procedure: as §3, §4

[1] = biological target: 3′-TAMRA-labeled MycG4 DNA; assay: Fluorescence binding assay; settings: 20° C., 100 mM K+ buffer, pH 7.0; read-out: Apparent Binding Affinity Kd, app
Procedure: Binding Affinity to the Myc G-Quadruplex. Binding affinity of eight 7-aza-8,9-methylenedioxyindenoisoquinolines to MycG4 was determined using a fluorescence binding assay with a 3′-TAMRA-labeled MycG4 DNA. Monitoring TAMRA emission upon drug titration afforded binding isotherms, from which apparent binding affinities, Kd,app, were derived.
Fluorescence-Based Binding Assays. Fluorescence-based binding assays were performed on a Jasco FP-8300 spectrofluorometer equipped with a temperature controller at 20° C. in a quartz cuvette with a 10 mm path length. 3′-TAMRA-labeled MycG4 DNA (Sigma-Aldrich) was diluted to 20 nM using a 75 mM KCl/25 mM potassium phosphate buffer, pH 7.0. […] Fluorescence intensity at 580 nm, the maximum for the free DNA, was plotted against drug:DNA ratio. The apparent binding dissociation constant, Kd,app, was derived for the binding of each compound. Using OriginPro software (OriginLab Corp., United States) the change in fluorescence intensity was fitted to a one-site binding equation,
where B0 is the initial fluorescence intensity, B is maximum change in fluorescence intensity, R is DNA concentration, and L is drug:DNA ratio.

RAJI lymphoma cells = assay: MTS cell viability IC50 assay; type: cell-based; settings: 72 h
Procedure: Cytotoxicity Results in Raji Non-Hodgkin's Lymphoma Cells. MTS experiments were then conducted to test the anti-proliferative effects of 7-aza-8,9-methylenedioxyindenoisoquinolines in Raji cells. Cells were incubated at 2-2000 nM of each drug for 72 h, and cell viabilities were quantified using the MTS assay. […] This potency trend generally correlated with the western blot results, in which G106 and G108 […] show weaker Myc downregulation.
as §4

With `COc1cnc2c(c1)C(=O)c1c-2n(CCCNC(C)C)c(=O)c2cc(OC)c(OC)cc12` [A11] the GI50 (HCT-116 (Colon)) was 1020 nM, the GI50 (HOP-62 (Lung)) was 700 nM and the GI50 (UACC-62 (Melanoma)) was 2430 nM. It also gave a GI50 (SN12C (Renal)) of 4.19 µM, a GI50 (OVCAR-3 (Ovarian)) of 8.99 µM and a GI50 (DU-145 (Prostate)) of 1270 nM. The GI50 (MCF7 (Breast)) was 220 nM, the GI50 (NCI-60 cancer cell lines) was 2340 nM and the GI50 (SF-539 (CNS)) was 1360 nM.

`COc1cnc2c(c1)C(=O)c1c-2n(CCCNCCO)c(=O)c2cc(OC)c(OC)cc12` [A12] gave a GI50 (HCT-116 (Colon)) of 1150 nM, a GI50 (HOP-62 (Lung)) of 350 nM and a GI50 (UACC-62 (Melanoma)) of 1170 nM. For the same compound, the GI50 (SN12C (Renal)) was 3.28 µM, the GI50 (OVCAR-3 (Ovarian)) was 4.52 µM and the GI50 (DU-145 (Prostate)) was 730 nM. For the same compound, the GI50 (MCF7 (Breast)) was 170 nM, the GI50 (NCI-60 cancer cell lines) was 2090 nM and the GI50 (SF-539 (CNS)) was 490 nM.

`CC[C@@]1(O)C(=O)OCc2c1cc1n(c2=O)Cc2cc3ccccc3nc2-1` [CPT, Camptothecin] was tested, and the GI50 (TC-32; read-out: GI50) was 7 nM, the GI50 (AMO-1; AMO1, AMO-1, 72 h, read-out: GI50) was 20 nM and the GI50 (RD-ES; read-out: GI50) was 5 nM. For the same compound, the GI50 (ARD; ARD, read-out: GI50) was 11 nM, the GI50 (HL-60; read-out: GI50) was 27 nM and the GI50 (SK-N-MC; read-out: GI50) was 9 nM. The GI50 (TC-106; TC-106, 72 h, read-out: GI50) was 11 nM, the GI50 (K-562; K562, K-562, 72 h, read-out: GI50) was 22 nM and the GI50 (THP-1; read-out: GI50) was 55 nM. For the same compound, the GI50 (CCRF-CRM; CCRF-CRM, read-out: GI50) was 4 nM, the GI50 (TC-71; read-out: GI50) was 8 nM and the GI50 (CHLA-99; CHLA-99, 72 h, read-out: GI50) was 4 nM. The GI50 (CHLA-32; CHLA-32, 72 h, read-out: GI50) was 6 nM, the GI50 (MOLT-4; read-out: GI50) was < 2 nM and the GI50 (L-363; read-out: GI50) was 10 nM. For the same compound, the GI50 (Kasumi-1; Kasumi-1, 72 h, read-out: GI50) was 85 nM, the GI50 (MDA-MB-231; read-out: GI50) was 37 nM and the GI50 (RS4;11; RS4;11, 72 h, read-out: GI50) was 6 nM. It also gave a GI50 (KMS-27; read-out: GI50) of 13 nM, a GI50 (RPMI-8226; read-out: GI50) of 14 nM and a GI50 (MCF-7; MCF7, MCF-7, 72 h, read-out: GI50) of 200 nM.

`COc1cc2c3c(n(CCCN4CCC[C@H]4C(N)=O)c(=O)c2cc1OC)-c1nc2c(cc1C3=O)OCO2` [G106, (S)-1-(3-(2,3-dimethoxy-5,12-dioxo-5,12-dihydro-6H-[1,3]dioxolo [4″,5″:5′,6′]pyrido[3′,2′:4,5]cyclopenta[1,2-c]isoquinolin-6-yl)propyl)pyrrolidine-2-carboxamide] was tested, and the Kd [1] was 55 nM and the IC50 (RAJI lymphoma cells; RAJI) was 1980 nM.

Work on `COc1cc2c3c(n(CCCNCCO)c(=O)c2cc1OC)-c1cc2c(cc1C3=O)OCO2` [LMP517] yielded a Kd [1] of 109 nM, a GI50 (TC-32) of 12 nM and a GI50 (AMO-1; AMO1, 72 h) of 69 nM. It also gave a GI50 (RD-ES) of 9 nM, a GI50 (ARD) of 27 nM and a GI50 (HL-60) of 137 nM. The GI50 (SK-N-MC) was 62 nM, the GI50 (TC-106; 72 h) was 51 nM and the GI50 (K-562; K562, 72 h) was 74 nM. It also gave a GI50 (THP-1) of 93 nM, a GI50 (CCRF-CRM) of 11 nM and a GI50 (TC-71) of 58 nM. The GI50 (CHLA-99; 72 h) was 44 nM, the GI50 (CHLA-32; 72 h) was 37 nM and the GI50 (MOLT-4) was 3 nM. For the same compound, the GI50 (L-363) was 42 nM, the GI50 (Kasumi-1; Kasumi 1, 72 h) was 148 nM and the GI50 (MDA-MB-231) was 319 nM. It also gave a GI50 (RS4;11; RS4-11, 72 h) of 7 nM, a GI50 (KMS-27) of 44 nM and a GI50 (RPMI-8226) of 82 nM. It also gave a GI50 (MCF-7; MCF7, 72 h) of 418 nM and an IC50 (RAJI lymphoma cells; Homo sapiens, Raji) of 53 nM.
